# Experimental data from paper PMC9350911, “Protein–Calixarene Complexation: From Recognition to Assembly” (Accounts of Chemical Research, 2022).
# Experiments:
# Type in all cases: binding
# [1] = target: Penicillium antifungal protein (PAF) (Penicillium chrysogenum, UniProt Q01701); test: ITC; X-ray cocrystal structure; NMR
# [2] = target: T1, cytochrome c (cyt c) (Saccharomyces cerevisiae, UniProt P00044); test: ITC; X-ray cocrystal structure; conditions: read-out: apparent dissociation constant; cited from earlier work
# T1 construct: gene CYC1
# T1 sequence (P00044 2-109): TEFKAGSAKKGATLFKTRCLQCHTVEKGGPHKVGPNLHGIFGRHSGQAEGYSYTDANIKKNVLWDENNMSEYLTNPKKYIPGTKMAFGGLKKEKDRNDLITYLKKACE
# [3] = target: T1, cytochrome c (cyt c); test: ITC; X-ray cocrystal structure; NMR; conditions: read-out: apparent dissociation constant; cited from earlier work
# [4] = target: T1, cytochrome c (cyt c); test: ITC; X-ray cocrystal structure; NMR; SECMALS
# Penicillium antifungal protein (PAF), sequence (Q01701 38-92 limits assumed): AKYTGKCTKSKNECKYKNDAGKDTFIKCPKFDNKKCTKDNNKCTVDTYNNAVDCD
structure (smiles),measurement,setting,value
O=S(=O)(O)c1cc2c(O)c(c1)Cc1cc(S(=O)(=O)O)cc(c1O)Cc1cc(S(=O)(=O)O)cc(c1O)Cc1cc(S(=O)(=O)O)cc(c1O)Cc1cc(S(=O)(=O)O)cc(c1O)Cc1cc(S(=O)(=O)O)cc(c1O)C2 [sulfonato-calix[6]arene],binding affinity,[1],Micromolar binding affinities were determined by ITC
O=S(=O)(O)c1cc2c(O)c(c1)Cc1cc(S(=O)(=O)O)cc(c1O)Cc1cc(S(=O)(=O)O)cc(c1O)Cc1cc(Br)cc(c1O)C2 [bromo-sulfonato-calix[4]arene],Kd,[2],20 µM
O=S(=O)(O)c1cc2c(O)c(c1)Cc1cc(S(=O)(=O)O)cc(c1O)Cc1cc(S(=O)(=O)O)cc(c1O)Cc1cc(S(=O)(=O)O)cc(c1O)C2 [sulfonato-calix[4]arene],Kd,[3],30 µM
same,binding affinity,[1],Micromolar binding affinities were determined by ITC
O=P(O)(O)c1cc2c(O)c(c1)Cc1cc(P(=O)(O)O)cc(c1O)Cc1cc(P(=O)(O)O)cc(c1O)Cc1cc(P(=O)(O)O)cc(c1O)Cc1cc(P(=O)(O)O)cc(c1O)Cc1cc(P(=O)(O)O)cc(c1O)C2 [phosphonato-calix[6]arene],binding affinity,[4],the ITC data indicated a binding affinity in the low micromolar range
